Consider 5 molecules from ChEMBL document CHEMBL4138146, “A Schmidt rearrangement-mediated synthesis of novel tetrahydro-benzo[1,4]diazepin-5-ones as potential anticancer and antiprotozoal agents” (Eur J Med Chem, 2017).

The subject of one assay is Trypanosoma cruzi. Briefly: Antitrypanosomal activity against Trypanosoma cruzi Tulahuen amastigote forms infected in human U937 cells after 72 hrs by beta-galactosidase reporter gene assay. It counts as functional, organism-based. The following applies: U-937, 72 h. Background: In a reporter assay the amount or activity of a reporter protein is the signal.
Another assay has as its system U-937. Kind of assay: Cytotoxicity against human U937 cells after 72 hrs by MTT assay. It counts as functional. The settings on record: U-937, 72 h, read-out: LC50 (the source's name). For orientation: Tetrazolium assays rely on reduction of a dye to a coloured formazan, in cell work by metabolically active cells.
A further assay deals with Plasmodium falciparum. Kind of assay: Antimalarial activity against chloroquine-sensitive Plasmodium falciparum 3D7 incubated for 48 hrs by malstat reagent based LDH release assay. It counts as functional, organism-based. The settings on record: 3D7, 48 h. On the technique in general: LDH in the medium is a marker of cell lysis.
The test system of another assay is Leishmania panamensis. Kind of assay: Antileishmanial activity against EpiR/GFP fused Leishmania panamensis MHOM/CO/87/UA140 intracellular amastigotes infected in human […] cells after 72 hrs by flow cytometric method. The class given is functional, organism-based. The settings on record: MHOM/CO/87/UA140, 72 h.

Values after ≈ are worked out from the molar mass of the structure shown.

One may read the EC50 as the concentration that produces a half-maximal response. A low value points to an effect from little substance. For `O=C1NCC(c2cc3cc(Cl)ccc3[nH]c2=O)Nc2ccccc21` (configuration not stated), the EC50 was 123 µg/mL (≈ 361 µM) with Trypanosoma cruzi, 43.2 µg/mL (≈ 127 µM) in the assay on Plasmodium falciparum and 19.4 µg/mL (≈ 57.2 µM) with Leishmania panamensis. Moreover, the CC50 with U-937 turned out to be 192 µg/mL (≈ 566 µM).
Turning to `O=C1NCC(c2cc3cc(Br)ccc3[nH]c2=O)Nc2ccccc21` (configuration not stated), the CC50 in the assay with U-937 came to 57 µg/mL (≈ 148 µM). Further, the 50% effective concentration (EC50) was found to be 13.6 µg/mL (≈ 35.4 µM) with Plasmodium falciparum and 15.3 µg/mL (≈ 39.7 µM) in the assay on Leishmania panamensis.
Take `CCCCOc1nc2ccc(Br)cc2cc1C1CNC(=O)c2ccccc2N1` (configuration not stated): in the assay on U-937, the CC50 was above 200 µg/mL. Further, the results for the EC50 in the assay on Plasmodium falciparum and in the assay with Leishmania panamensis were 50.8 µg/mL (≈ 115 µM) and 34.2 µg/mL (≈ 77.6 µM), respectively.
In the case of `C[C@@H]1[C@H](O)[C@@H](C)/C=C/C=C/C=C/C=C/C=C/C=C/C=C/[C@H](O[C@@H]2O[C@H](C)[C@@H](O)[C@H](N)[C@@H]2O)C[C@@H]2O[C@](O)(C[C@@H](O)C[C@@H](O)[C@H](O)CC[C@@H](O)C[C@@H](O)CC(=O)O[C@H]1C)C[C@H](O)[C@H]2C(=O)O` [AMPHOTERICIN B], in the assay with U-937, the CC50 came out at 36 µg/mL (≈ 39 µM).
For the molecule `O=C(Cn1ccnc1[N+](=O)[O-])NCc1ccccc1` [BENZNIDAZOLE], in the assay with U-937, the CC50 amounted to 180 µg/mL (≈ 692 µM).
